Measurements from publication PMC8399443, “Synthesis, Biological Evaluation, and In Silico Modeling of N-Substituted Quinoxaline-2-Carboxamides” (Pharmaceuticals, 2021).
Values after ≈ are worked out from the molar mass of the structure shown. Values joined by “and” are separate entries in the source; they are usually repeats but may differ in a detail not shown here. Identical values can stand only once. Like-named read-outs stand apart in the source and are kept apart here.

Assays:
Mtb H37Ra = assay: In vitro antimycobacterial activity, Microplate Alamar Blue Assay (MABA); assay type: cell-based, Mycobacterium tuberculosis; conditions: for SI (selectivity index): IC50 HepG2 (µM)/MIC Mtb H37Ra (µM); for MIC: Mycobacterium tuberculosis, H37RA, read-out: MIC Mtb H37Ra; for MIC Mtb H37Ra: MABA, pH of testing medium 6.6
M. smegmatis = assay: In vitro antimycobacterial activity, MABA; assay type: cell-based, Mycobacterium smegmatis; conditions: Mycolicibacterium smegmatis, read-out: MIC M. smeg
M. aurum = assay: In vitro antimycobacterial activity, MABA; assay type: cell-based, Mycobacterium aurum; conditions: Mycolicibacterium aurum, read-out: MIC M. aurum
HepG2 cell line = assay: In vitro cytotoxicity, CellTiter 96 (MTS); assay type: cell-based; conditions: Homo sapiens, HepG2; cytotoxicity, 24 h incubation, CellTiter 96; read-out: HepG2 IC50
S. aureus = assay: In vitro antibacterial activity, microdilution broth (EUCAST); assay type: cell-based; conditions: Staphylococcus aureus; 48 h; standards; read-out: MIC Staphylococcus aureus
E. faecalis = assay: as above; assay type: cell-based; conditions: Enterococcus faecalis; 48 h; standards; read-out: MIC Enterococcus faecalis
E. coli = assay: as above; assay type: cell-based; conditions: Escherichia coli; 48 h; standards; read-out: MIC Escherichia coli
P. aeruginosa = assay: as above; assay type: cell-based; conditions: Pseudomonas aeruginosa; 48 h; standards; read-out: MIC Pseudomonas aeruginosa
S. epidermidis = assay: as above; assay type: cell-based; conditions: Staphylococcus epidermidis; 48 h; standards; read-out: MIC Staphylococcus epidermidis
K. pneumoniae = assay: as above; assay type: cell-based; conditions: Klebsiella pneumoniae; 48 h; standards; read-out: MIC Klebsiella pneumonia
S. marcescens = assay: as above; assay type: cell-based; conditions: Serratia marcescens; 48 h; standards; read-out: MIC Serratia marcescens

SMILES | SI (selectivity index) (Mtb H37Ra) | MIC (Mtb H37Ra) | MIC (M. smegmatis; MABA) | MIC (M. aurum; MABA) | IC50 (HepG2 cell line) | further results
O=C(NC1CCCCC1)c1cnc2ccccc2n1 [Compound 6] | >8.17 | 31.2 µg/mL and 122 µM | 31.2 µg/mL | ≥ 500 µg/mL | > 1000 µM | MIC (M. smegmatis): 122 µM
NNC(=O)c1ccncc1 [INH, isoniazid, reference compound] | – | 0.25 µg/mL and 1.82 µM | – | – | > 1000 µM | MIC (M. smegmatis): 15.6 µg/mL; MIC (M. aurum): 3.91 µg/mL
COc1cc(NC(=O)c2cnc3ccccc3n2)cc(OC)c1 [Compound 4] | >0.12 | 62.5 µg/mL and 202 µM | ≥ 125 µg/mL | ≥ 125 µg/mL | > 25 µM | –
O=C(NCc1ccc(Cl)c(Cl)c1)c1cnc2ccccc2n1 [Compound 31] | 2.80 | 7.81 µg/mL and 23.5 µM | ≥ 500 µg/mL | ≥ 500 µg/mL | 66.9 µM | –
O=C(NCc1cccc(Cl)c1)c1cnc2ccccc2n1 [Compound 26] | 5.34 | 7.81 µg/mL and 26.2 µM | 31.2 µg/mL | 31.2 µg/mL | 140 µM | MIC (M. smegmatis): 105 µM; MIC (M. aurum): 105 µM
O=C(O)c1nccnc1C(=O)Nc1cccc(C(F)(F)F)c1 [C00007 R=3-CF3, reference compound] | – | 250 µg/mL (≈ 803 µM) | – | – | – | –
O=C(NCc1ccc(Cl)cc1Cl)c1cnc2ccccc2n1 [Compound 30] | – | ≥ 500 µg/mL | ≥ 125 µg/mL | ≥ 125 µg/mL | > 100 µM | –
O=C(NCc1cccc(F)c1)c1cnc2ccccc2n1 [Compound 21] | 8.92 | 7.81 µg/mL and 27.8 µM | ≥ 500 µg/mL | ≥ 500 µg/mL | 248 µM | –
O=C(Nc1cccc(C(F)(F)F)c1)c1cnc2ccccc2n1 [Compound 14] | – | ≥ 500 µg/mL | ≥ 125 µg/mL | ≥ 125 µg/mL | > 25 µM | –
COc1ccc(OC)c(CNC(=O)c2cnc3ccccc3n2)c1 [Compound 18] | – | 3.91 µg/mL and 12.1 µM | – | – | > 1000 µM | MIC (M. smegmatis): ≥ 500 µg/mL; MIC (M. aurum): ≥ 500 µg/mL
COc1cccc(CNC(=O)c2cnc3ccccc3n2)c1 [Compound 19] | >21.3 | 15.6 µg/mL and 47 µM | – | – | > 1000 µM | MIC (M. smegmatis): ≥ 500 µg/mL; MIC (M. aurum): ≥ 500 µg/mL
COc1ccc(NC(=O)c2nccnc2C(=O)O)cc1 [C00007 R=4-OCH3, reference compound] | – | ≥ 500 µg/mL | – | – | – | –
O=C(Nc1cccc(Cl)c1)c1cnc2ccccc2n1 [Compound 13] | – | ≥ 500 µg/mL | ≥ 500 µg/mL | ≥ 500 µg/mL | > 25 µM | –
O=C(NCc1ccccc1)c1cnc2ccccc2n1 [Compound 15] | >17 | 15.6 µg/mL and 59.3 µM | ≥ 125 µg/mL | ≥ 125 µg/mL | > 1000 µM | MIC Mtb H37Ra (Mtb H37Ra): 15.625 (15) µg/mL
COc1ccc(CNC(=O)c2cnc3ccccc3n2)cc1 [Compound 20] | 16.1 | 3.91 µg/mL and 11.8 µM | – | – | 209 µM | MIC Mtb H37Ra (Mtb H37Ra): 3.91 (20) µg/mL; MIC (M. smegmatis): ≥ 250 µg/mL; MIC (M. aurum): 125 µg/mL
O=C(NCc1ccc(Br)cc1)c1cnc2ccccc2n1 [Compound 27] | >4.4 | 7.81 µg/mL and 22.8 µM | ≥ 500 µg/mL | ≥ 500 µg/mL | > 100 µM | –
O=C(O)c1nccnc1C(=O)Nc1ccccc1 [C00007 R=H, reference compound] | – | ≥ 500 µg/mL | – | – | – | –
O=C(Nc1ccccc1Cl)c1cnc2ccccc2n1 [Compound 12] | – | ≥ 125 µg/mL | ≥ 125 µg/mL | ≥ 125 µg/mL | > 50 µM | –
O=C(Nc1ccccc1F)c1cnc2ccccc2n1 [Compound 7] | – | ≥ 500 µg/mL | 62.5 µg/mL | ≥ 500 µg/mL | > 100 µM | MIC (M. smegmatis): 234 µM

SMILES | SI (selectivity index) (Mtb H37Ra) | MIC (Mtb H37Ra) | MIC (M. smegmatis; MABA) | MIC (M. aurum; MABA) | IC50 (HepG2 cell line) | further results
CN(C)c1ccc(NC(=O)c2cnc3ccccc3n2)cc1 [Compound 10] | – | ≥ 500 µg/mL | ≥ 500 µg/mL | ≥ 500 µg/mL | > 250 µM | –
O=C(NCc1ccccc1Cl)c1cnc2ccccc2n1 [Compound 25] | – | 15.6 µg/mL and 52.5 µM | – | – | 528 µM | MIC (M. smegmatis): ≥ 500 µg/mL; MIC (M. aurum): ≥ 500 µg/mL
Cc1ccccc1CNC(=O)c1cnc2ccccc2n1 [Compound 23] | 5.60 | 7.81 µg/mL and 28.2 µM | ≥ 125 µg/mL | ≥ 125 µg/mL | 157 µM | –
O=C(Nc1ccccc1)c1cnc2ccccc2n1 [Compound 1] | – | ≥ 500 µg/mL | ≥ 250 µg/mL | ≥ 250 µg/mL | > 50 µM | –
O=C(Nc1cccc(F)c1)c1cnc2ccccc2n1 [Compound 8] | – | 250 µg/mL (≈ 935 µM) | ≥ 500 µg/mL | ≥ 500 µg/mL | > 100 µM | –
Cc1ccc(CNC(=O)c2cnc3ccccc3n2)cc1 [Compound 24] | 3.11 | 7.81 µg/mL and 28.2 µM | ≥ 250 µg/mL | ≥ 250 µg/mL | 87.7 µM | –
O=C(NCc1cccc(C(F)(F)F)c1)c1cnc2ccccc2n1 [Compound 28] | 4.12 | 3.91 µg/mL and 11.8 µM | 250 µg/mL | ≥ 500 µg/mL | 48.6 µM | MIC Mtb H37Ra (Mtb H37Ra): 3.91 (28) µg/mL
O=C(O)c1cn(C2CC2)c2cc(N3CCNCC3)c(F)cc2c1=O [CPX, ciprofloxacin] | – | 0.25 µg/mL and 0.75 µM | 0.125 µg/mL | 0.0156 µg/mL | > 500 µM | MIC (S. aureus): 0.128 to 0.256 µg/mL (≈ 0.386 to 0.773 µM); MIC (E. faecalis): 0.512 µg/mL (≈ 1.55 µM); MIC (E. coli): 0.008 µg/mL (≈ 0.0241 µM); MIC (P. aeruginosa): 0.128 µg/mL (≈ 0.386 µM); MIC (S. epidermidis): > 1.02 µg/mL; MIC (K. pneumoniae): > 1.02 µg/mL; MIC (S. marcescens): 0.256 µg/mL (≈ 0.773 µM)
O=C(NCc1ccc(O)cc1)c1cnc2ccccc2n1 [Compound 17] | >1.1 | 62.5 µg/mL and 224 µM | ≥ 500 µg/mL | 500 µg/mL | > 250 µM | –
O=C(Nc1ccc(O)cc1)c1cnc2ccccc2n1 [Compound 3] | >1.01 | 62.5 µg/mL and 236 µM | ≥ 500 µg/mL | ≥ 500 µg/mL | > 250 µM | –
O=C(Nc1ccc(F)cc1)c1cnc2ccccc2n1 [Compound 9] | >1.71 | 15.6 µg/mL and 58.5 µM | ≥ 500 µg/mL | ≥ 500 µg/mL | > 100 µM | –
O=C(Nc1ccc(F)cc1F)c1cnc2ccccc2n1 [Compound 11] | – | ≥ 500 µg/mL | ≥ 500 µg/mL | ≥ 500 µg/mL | > 250 µM | –
O=C(NCCCc1ccccc1)c1cnc2ccccc2n1 [Compound 33, N-phenylpropylquinoxaline-2-carboxamide] | 2.7 | 15.6 µg/mL and 53.6 µM | ≥ 500 µg/mL | ≥ 500 µg/mL | 146 µM | –
O=C(NCc1cccc(O)c1)c1cnc2ccccc2n1 [Compound 16] | 5.40 | 31.2 µg/mL and 112 µM | 62.5 µg/mL | ≥ 500 µg/mL | 601 µM | MIC (M. smegmatis): 237 µM
O=C(NCc1ccc(F)cc1F)c1cnc2ccccc2n1 [Compound 22] | – | ≥ 500 µg/mL | ≥ 500 µg/mL | ≥ 500 µg/mL | > 25 µM | –
CO[C@H]1/C=C/O[C@@]2(C)Oc3c(C)c(O)c4c(O)c(c(/C=N/N5CCN(C)CC5)c(O)c4c3C2=O)NC(=O)/C(C)=C\C=C\[C@H](C)[C@H](O)[C@@H](C)[C@@H](O)[C@@H](C)[C@H](OC(C)=O)[C@@H]1C [RIF, rifampicin, reference compound] | – | 0.00313 µg/mL and 0.0038 µM | – | – | > 500 µM | MIC (M. smegmatis): 12.5 µg/mL; MIC (M. aurum): 0.39 µg/mL
COc1ccc(NC(=O)c2cnc3ccccc3n2)cc1 [Compound 5] | – | ≥ 125 µg/mL | ≥ 125 µg/mL | ≥ 125 µg/mL | > 50 µM | –
O=C(NCCc1ccccc1)c1cnc2ccccc2n1 [Compound 32, N-phenethylquinoxaline-2-carboxamide] | – | ≥ 500 µg/mL | ≥ 500 µg/mL | ≥ 500 µg/mL | > 1000 µM | –
O=C(Nc1cccc(O)c1)c1cnc2ccccc2n1 [Compound 2] | >4.20 | 15.6 µg/mL and 58.9 µM | ≥ 125 µg/mL | ≥ 125 µg/mL | > 250 µM | –
